The source made the active and inactive calls.
Tests used:
Protein skinhead-1 = target: T1, Protein skinhead-1 (Caenorhabditis elegans, UniProt P34707); type: functional
T1 sequence (P34707 whole entry): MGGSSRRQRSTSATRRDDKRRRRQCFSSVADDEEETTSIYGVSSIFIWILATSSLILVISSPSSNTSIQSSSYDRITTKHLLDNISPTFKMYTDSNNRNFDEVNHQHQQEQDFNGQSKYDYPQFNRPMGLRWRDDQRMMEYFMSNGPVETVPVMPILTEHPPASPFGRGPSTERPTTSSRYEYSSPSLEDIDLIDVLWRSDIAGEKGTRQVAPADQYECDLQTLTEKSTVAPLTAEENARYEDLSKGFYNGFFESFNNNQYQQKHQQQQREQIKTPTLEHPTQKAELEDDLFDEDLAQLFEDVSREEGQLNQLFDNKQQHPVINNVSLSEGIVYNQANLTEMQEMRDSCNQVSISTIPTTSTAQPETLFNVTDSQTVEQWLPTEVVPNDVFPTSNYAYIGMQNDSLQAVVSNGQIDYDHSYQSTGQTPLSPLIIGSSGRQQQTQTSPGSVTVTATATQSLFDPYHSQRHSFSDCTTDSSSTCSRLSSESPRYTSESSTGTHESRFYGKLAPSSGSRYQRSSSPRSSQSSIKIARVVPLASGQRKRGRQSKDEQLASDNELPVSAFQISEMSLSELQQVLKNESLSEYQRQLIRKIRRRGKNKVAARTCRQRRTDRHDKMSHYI

[1] = Luminescence Cell-Based Dose Response HTS to Identify Activators of Luciferase Translation or Activity in H4 […] Cells. [Related pubchem assays: 1829 (Project Summary), 1814 (Primary HTS)]; type: functional
[2] = Luminescence Cell-Based Dose Confirmation HTS to Identify Activators of 5'UTR Stem-Loop Driven Alpha-Synuclein mRNA Translation in H4 Neuroglioblastoma Cells. [Related pubchem assays: 1829 (Project Summary), 1814 (Primary HTS)]; type: functional
H4 = assay: Luminescence Cell-Based Dose Response HTS to Identify Activators of 5'UTR Stem-Loop Driven Prion Protein mRNA Translation in H4 Neuroglioblastoma Cells. [Related pubchem assays: 1829 (Project Summary), 1814 (Primary HTS)]; type: functional; settings: Homo sapiens
[3] = target: T2, Apoptotic protease-activating factor 1 (Homo sapiens, UniProt O14727); type: functional
T2 sequence (O14727 whole entry): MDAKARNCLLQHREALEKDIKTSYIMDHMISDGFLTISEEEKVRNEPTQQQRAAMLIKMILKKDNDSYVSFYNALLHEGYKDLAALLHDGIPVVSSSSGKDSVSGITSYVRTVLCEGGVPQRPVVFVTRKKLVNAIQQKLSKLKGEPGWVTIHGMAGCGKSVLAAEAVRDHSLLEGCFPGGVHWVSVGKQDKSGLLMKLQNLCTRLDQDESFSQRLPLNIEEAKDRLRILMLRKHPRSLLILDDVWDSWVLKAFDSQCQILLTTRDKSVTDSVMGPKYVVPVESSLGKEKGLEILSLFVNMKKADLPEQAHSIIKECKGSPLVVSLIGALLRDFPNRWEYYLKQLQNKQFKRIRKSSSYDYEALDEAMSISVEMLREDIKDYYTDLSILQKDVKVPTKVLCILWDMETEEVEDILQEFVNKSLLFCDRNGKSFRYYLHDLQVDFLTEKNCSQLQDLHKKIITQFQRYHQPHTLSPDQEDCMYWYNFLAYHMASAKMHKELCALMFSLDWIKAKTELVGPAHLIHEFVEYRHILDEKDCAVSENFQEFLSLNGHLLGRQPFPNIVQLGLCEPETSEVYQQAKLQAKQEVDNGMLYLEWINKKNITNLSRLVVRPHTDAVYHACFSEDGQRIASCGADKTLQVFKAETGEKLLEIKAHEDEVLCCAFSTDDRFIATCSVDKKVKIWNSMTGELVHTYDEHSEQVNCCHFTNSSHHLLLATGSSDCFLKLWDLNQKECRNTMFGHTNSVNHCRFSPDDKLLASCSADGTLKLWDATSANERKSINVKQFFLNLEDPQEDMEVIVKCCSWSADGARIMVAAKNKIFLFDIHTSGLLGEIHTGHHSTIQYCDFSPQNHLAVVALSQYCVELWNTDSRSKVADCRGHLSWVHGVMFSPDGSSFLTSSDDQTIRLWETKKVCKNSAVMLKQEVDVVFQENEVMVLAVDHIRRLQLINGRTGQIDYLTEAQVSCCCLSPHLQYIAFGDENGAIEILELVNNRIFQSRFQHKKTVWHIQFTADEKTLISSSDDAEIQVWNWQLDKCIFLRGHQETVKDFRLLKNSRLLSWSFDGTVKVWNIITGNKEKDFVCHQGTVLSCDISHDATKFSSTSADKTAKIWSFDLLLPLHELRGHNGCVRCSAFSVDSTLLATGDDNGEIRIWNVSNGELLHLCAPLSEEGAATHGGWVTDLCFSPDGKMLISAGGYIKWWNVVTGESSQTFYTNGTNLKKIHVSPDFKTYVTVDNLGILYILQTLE

Cytochrome P450 3A4 = Cytochrome P450 3A4 (Homo sapiens, UniProt P08684);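 further: CYP3A4 tested as one member of a cytochrome P450 panel screen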
[4] = target: T3, Microphthalmia-associated transcription factor (Homo sapiens, UniProt O75030); assay: reducers of TRPM1 reporter luminescence, concentration series – cell-based, SK-MEL-5, cherry-picked, set 3, MITF inhibitor project, dose response (AID 493073); type: functional;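 further: SK-MEL-5 melanoma cells with luciferase driven by the MITF target TRPM1 promoter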
T3 sequence (O75030 whole entry): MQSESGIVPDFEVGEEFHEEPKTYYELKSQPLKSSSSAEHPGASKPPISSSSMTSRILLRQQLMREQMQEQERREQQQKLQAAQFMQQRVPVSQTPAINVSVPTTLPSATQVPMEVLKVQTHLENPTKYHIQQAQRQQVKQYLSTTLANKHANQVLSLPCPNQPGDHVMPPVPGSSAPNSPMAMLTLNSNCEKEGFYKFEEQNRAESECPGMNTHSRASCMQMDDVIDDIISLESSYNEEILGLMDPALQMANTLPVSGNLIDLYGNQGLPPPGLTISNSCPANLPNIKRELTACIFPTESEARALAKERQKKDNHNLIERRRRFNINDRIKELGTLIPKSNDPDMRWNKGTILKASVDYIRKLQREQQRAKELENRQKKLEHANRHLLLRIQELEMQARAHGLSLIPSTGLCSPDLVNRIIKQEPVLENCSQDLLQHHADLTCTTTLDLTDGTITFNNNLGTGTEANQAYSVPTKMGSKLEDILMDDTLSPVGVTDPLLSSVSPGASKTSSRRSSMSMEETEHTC

A-375 = assay: proliferation inhibition in MITF-low A375 cells – cell-based, cherry-pick samples, set 2, counter-screen for MITF modulator project, dose response (AID 540335); type: functional; settings: Homo sapiens
Melanocortin receptor 4 [5] = target: T4, Melanocortin receptor 4 (Homo sapiens, UniProt P32245); type: functional, cell-based;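 further: Cell-based assay with luminescence read-out, confirmatory dose-response testing for agonist activity of biased ligands at MC4R; human U2OS cells with tagged receptor and beta-arrestin; potency of agonists that increase receptor coupling to beta-arrestin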
[6] = loss of viability in HepG2 cells – cell-based, CellTiter-Glo, cherry-picked, cytotoxicity control for Shn3 inhibitor project, dose response (AID 624134); type: functional
[7] = Luminescence Cell-Based Dose Retest to Confirm Inhibitors of Cancer Stem Cells. [Related pubchem assays (depositor defined):AID2717, AID2721]; type: functional; settings: Homo sapiens
INS1 = assay: INS-1E survival protection against cytokine death – cell-based, luminescence, retest, dose response (AID 449756); type: functional; settings: Rattus norvegicus;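 further: cell death triggered by IL-1 beta plus TNF-alpha plus IFN-gamma mixture; protective hits raise ATP signal compared with cytokine alone wells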
[8] = non-specific 3'UTR reporter inhibition in Clone20-Shn3RL – cell-based, Renilla luciferase, cherry-picked, counter-screen for Shn3 inhibitor project, dose response (AID 624133); type: functional
[9] = cAMP pathway inhibition in counterscreen cell line – TR-FRET cAMP detection, counter-screen for MC4R biased antagonist project, dose response (AID 602305); type: functional, cell-based;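 further: U2OS cells stimulated with forskolin near its EC80 as the cAMP inducer; potency is for inhibition of forskolin-stimulated cAMP signaling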
[10] = Fluorescence-based cell-based high throughput dose response assay for inhibitors of the interaction of nucleotide-binding oligomerization domain containing 2 (NOD2) and the receptor-interacting serine-threonine kinase 2 (RIPK2).; type: functional; settings: Homo sapiens
[11] = reduction of Shn3 3'UTR-driven luciferase in osteoblasts – cell-based, Clone20 osteoblasts, firefly luciferase, cherry-picked, dose response (AID 624132); type: functional;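 further: firefly luciferase luminescence from reporter carrying the Shn3 3'UTR in osteoblasts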
Melanocortin receptor 4 [12] = target: T4, Melanocortin receptor 4; assay: inhibitors of MC4R cAMP signaling – cell-based, TR-FRET, biased antagonists, dose response (AID 602298); type: functional;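 further: antagonist potency against agonist-stimulated cAMP production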
Genome polyprotein = Genome polyprotein (dengue virus type 2, UniProt P29990); assay: flavivirus cap methylation enzyme inhibition – biochemical, confirmation dose response, primary screen (AID 588689); type: functional
[13] = target: T5, Corticotropin-releasing factor receptor 2/Corticotropin-releasing factor-binding protein (Homo sapiens, UniProt P24387+Q13324); assay: activators of CRF receptor 2 with binding protein – uHTS hits, confirmation (AID 602473); type: functional; settings: read-out: EC50_Mean
T5 sequence (Q13324 whole entry): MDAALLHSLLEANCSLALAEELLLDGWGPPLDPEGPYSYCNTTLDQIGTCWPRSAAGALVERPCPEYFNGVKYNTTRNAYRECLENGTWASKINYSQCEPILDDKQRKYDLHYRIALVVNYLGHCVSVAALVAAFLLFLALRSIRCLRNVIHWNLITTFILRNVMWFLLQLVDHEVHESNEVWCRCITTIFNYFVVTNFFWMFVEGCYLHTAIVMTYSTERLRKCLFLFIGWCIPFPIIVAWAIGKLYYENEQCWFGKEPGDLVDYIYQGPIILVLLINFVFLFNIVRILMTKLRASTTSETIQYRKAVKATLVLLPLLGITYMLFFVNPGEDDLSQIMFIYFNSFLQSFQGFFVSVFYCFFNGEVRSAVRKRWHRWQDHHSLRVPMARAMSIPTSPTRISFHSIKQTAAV
T5 sequence (P24387 whole entry): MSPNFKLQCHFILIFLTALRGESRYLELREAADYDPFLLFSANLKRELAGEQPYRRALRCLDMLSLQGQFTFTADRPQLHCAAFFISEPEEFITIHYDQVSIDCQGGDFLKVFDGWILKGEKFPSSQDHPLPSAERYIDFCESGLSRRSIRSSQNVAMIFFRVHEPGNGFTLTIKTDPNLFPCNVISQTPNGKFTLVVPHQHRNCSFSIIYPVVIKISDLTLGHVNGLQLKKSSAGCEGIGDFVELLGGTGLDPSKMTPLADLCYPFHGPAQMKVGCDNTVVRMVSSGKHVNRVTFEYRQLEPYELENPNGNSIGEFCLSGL

H9c2 = assay: cells; type: functional, cell-based; settings: Rattus norvegicus, H9c2, Myocardium
Vero = assay: viability of Vero cells under compound – cytotoxicity control for flavivirus capping enzyme inhibitors (AID 588742); type: functional; settings: Chlorocebus sabaeus
[14] = THP-1 cell cytotoxicity, cytotoxicity control, set 4 (AID 504911); type: functional; settings: Mycobacterium tuberculosis

T4 sequence (P32245 whole entry): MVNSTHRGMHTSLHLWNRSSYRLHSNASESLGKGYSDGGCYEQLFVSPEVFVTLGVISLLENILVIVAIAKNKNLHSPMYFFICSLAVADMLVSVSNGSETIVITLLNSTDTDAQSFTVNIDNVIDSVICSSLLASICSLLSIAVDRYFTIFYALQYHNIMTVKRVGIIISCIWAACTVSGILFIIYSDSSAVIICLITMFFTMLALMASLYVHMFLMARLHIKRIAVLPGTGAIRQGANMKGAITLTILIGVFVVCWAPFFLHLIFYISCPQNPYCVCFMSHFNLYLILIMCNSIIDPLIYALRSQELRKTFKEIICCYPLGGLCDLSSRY
Sequence of Cytochrome P450 3A4 (P08684 whole entry): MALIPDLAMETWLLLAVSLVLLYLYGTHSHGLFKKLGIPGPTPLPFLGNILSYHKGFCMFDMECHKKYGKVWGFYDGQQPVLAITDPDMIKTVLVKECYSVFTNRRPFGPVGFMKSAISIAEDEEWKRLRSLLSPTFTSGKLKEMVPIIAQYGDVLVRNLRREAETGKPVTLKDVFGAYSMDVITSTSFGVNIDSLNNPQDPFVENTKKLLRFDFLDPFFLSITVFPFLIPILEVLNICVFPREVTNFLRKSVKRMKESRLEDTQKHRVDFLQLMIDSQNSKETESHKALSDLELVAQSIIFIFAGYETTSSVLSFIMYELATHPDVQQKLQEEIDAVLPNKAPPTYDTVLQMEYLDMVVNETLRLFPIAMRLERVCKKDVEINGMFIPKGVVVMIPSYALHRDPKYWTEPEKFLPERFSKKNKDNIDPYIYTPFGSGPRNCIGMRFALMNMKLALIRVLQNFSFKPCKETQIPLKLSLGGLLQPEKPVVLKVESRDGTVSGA
Sequence of Genome polyprotein (P29990 2492-3391 limits assumed): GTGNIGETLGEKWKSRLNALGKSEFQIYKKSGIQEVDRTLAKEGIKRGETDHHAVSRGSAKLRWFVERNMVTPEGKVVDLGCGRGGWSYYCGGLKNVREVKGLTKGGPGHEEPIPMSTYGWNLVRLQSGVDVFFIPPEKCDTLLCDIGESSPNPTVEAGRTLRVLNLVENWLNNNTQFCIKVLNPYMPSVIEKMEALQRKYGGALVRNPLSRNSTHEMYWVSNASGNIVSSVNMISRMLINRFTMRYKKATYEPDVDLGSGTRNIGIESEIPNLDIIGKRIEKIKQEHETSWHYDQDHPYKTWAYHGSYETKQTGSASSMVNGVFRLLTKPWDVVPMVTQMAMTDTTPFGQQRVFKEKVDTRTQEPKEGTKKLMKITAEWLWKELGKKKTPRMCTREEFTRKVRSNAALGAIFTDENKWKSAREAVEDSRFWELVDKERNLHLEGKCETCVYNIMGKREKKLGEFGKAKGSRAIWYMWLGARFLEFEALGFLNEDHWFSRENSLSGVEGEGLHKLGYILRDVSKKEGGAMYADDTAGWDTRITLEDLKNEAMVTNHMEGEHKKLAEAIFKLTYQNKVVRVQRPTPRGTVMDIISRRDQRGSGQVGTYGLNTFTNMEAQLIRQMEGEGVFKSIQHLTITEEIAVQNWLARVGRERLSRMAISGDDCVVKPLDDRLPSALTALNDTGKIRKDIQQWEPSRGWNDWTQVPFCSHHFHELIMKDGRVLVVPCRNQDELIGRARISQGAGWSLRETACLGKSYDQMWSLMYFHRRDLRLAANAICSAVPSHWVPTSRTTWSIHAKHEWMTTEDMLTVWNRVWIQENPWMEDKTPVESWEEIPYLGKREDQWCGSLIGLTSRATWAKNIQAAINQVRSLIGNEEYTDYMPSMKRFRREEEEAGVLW

## COc1ccc2c(c1)Cc1sc(NC(=O)c3ccccc3)nc1-2
Protein skinhead-1
  IC50: > 100 µM (inactive)
[1]
  EC50: 42.4 µM (active)
[2]
  EC50: 31.3 µM (active)
H4
  EC50: 4.58 µM (active)
[3]
  IC50: 27.5 µM (active)

## CC1CC2(CCCCC2)N2C(=O)C(=O)c3cccc1c32 (configuration not stated)
[3]
  IC50: 24.4 µM (active)
Cytochrome P450 3A4
  AC50: 25.1 µM (inconclusive)

## COc1cccc2c1C(=O)C=C(C)C2=O
[4]
  AC50: 7.83 µM (active)
[3]
  IC50: 14.4 µM (active)
A-375
  AC50: 37.8 µM (active)

## CC(=O)Nc1cc(-c2ccccc2F)cn2c(-c3cccc(C(F)(F)F)c3)cnc12
Melanocortin receptor 4 [5]
  EC50: > 89.2 µM (inactive)

## CC1=C(CO)C(=O)OC([C@@H](C)C2CC[C@H]3C4C[C@H]5O[C@]56[C@@H](O)C=CC(=O)[C@]6(C)C4CC[C@]23C)C1 (some centres not stated)
[6]
  AC50: 9.71 µM (active)
[7]
  AC50: 0.982 µM (active)
[1]
  EC50: > 120 µM (not active)
INS1
  AC50: 7.49 µM (active)
[8]
  AC50: 1.99 µM (active)
[9]
  IC50: > 64.6 µM (inactive)
[2]
  EC50: > 120 µM (not active)
H4
  EC50: > 120 µM (not active)
[10]
  IC50: 2.65 µM (active)
[11]
  AC50: 0.674 µM (active)
Melanocortin receptor 4 [12]
  IC50: > 64.6 µM (inactive)

## NC(=O)C1=C(c2ccccc2)c2ccccc2C1=O
Genome polyprotein
  IC50: 59.5 µM (active)
[13]
  EC50: 11.9 µM (active)
H9c2
  IC50: > 79 µM (inactive)
Vero
  CC50: 32.1 µM (active)

## CCCc1cc(C(N)=S)ccn1 [PROTIONAMIDE]
[14]
  CC50: > 100 µM (active)

From ChEMBL document CHEMBL1201862, “PubChem BioAssay data set” (2004)
